Experimental data: PubChem BioAssay (NCI)
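Cultured in 96-well plates, cells were exposed to test compound for 48 hours across five concentrations. Here, GI50 denotes the concentration required for 50% inhibition of growth. The concentration for full growth arrest is given as TGI.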

Key:
Test in all cases: NCI anticancer screen, dose series, 48 h
[1] = test system: SK-MEL-28 melanoma
[2] = test system: LOX IMVI melanoma
[3] = test system: PC-3 prostate
[4] = test system: SF-268 CNS
[5] = test system: 786-0 renal
[6] = test system: K-562 leukemia
[7] = test system: MDA-N
[8] = test system: HOP-92 NSCLC
[9] = test system: HCT-116 colon
[10] = test system: SNB-75 CNS
[11] = test system: SNB-19 CNS
[12] = test system: HCC-2998 colon
[13] = test system: ACHN renal
[14] = test system: IGROV1 ovarian
[15] = test system: UO-31 renal
[16] = test system: EKVX NSCLC
[17] = test system: MDA-MB-435
[18] = test system: NCI-H23 lung
[19] = test system: HS 578T breast
[20] = test system: SK-MEL-5 melanoma
[21] = test system: A498 renal
[22] = test system: A549 NSCLC
[23] = test system: HCT-15 colon
[24] = test system: OVCAR-8 ovarian
[25] = test system: U251 CNS
[26] = test system: SN12C renal
[27] = test system: RPMI-8226 leukemia
[28] = test system: M14 melanoma
[29] = test system: SK-MEL-2 melanoma
[30] = test system: MOLT-4 leukemia
[31] = test system: HL-60(TB) leukemia
[32] = test system: MDA-MB-231 breast
[33] = test system: DU-145 prostate
[34] = test system: NCI-H460 lung
[35] = test system: SK-OV-3 ovarian
[36] = test system: UACC-62 melanoma
[37] = test system: MCF7 breast
[38] = test system: NCI-H226 lung
[39] = test system: OVCAR-5 ovarian
[40] = test system: SW-620 colon
[41] = test system: NCI/ADR-RES ovarian
[42] = test system: COLO 205 colon
[43] = test system: SF-539 CNS
[44] = test system: TK-10 renal
[45] = test system: HOP-62 NSCLC
[46] = test system: CCRF-CEM leukemia
[47] = test system: CAKI-1 renal
[48] = test system: UACC-257 melanoma
[49] = test system: KM12 colon
[50] = test system: RXF 393 renal
[51] = test system: OVCAR-4 ovarian
[52] = test system: NCI-H522 lung
[53] = test system: BT-549 breast
[54] = test system: OVCAR-3 ovarian
[55] = test system: SF-295 CNS
[56] = test system: HT29 colon
[57] = test system: T-47D breast
[58] = test system: MALME-3M melanoma
[59] = test system: SR leukemia

Work on `CC(C)(C)OC(=O)N[C@H]1CCN(C2CCCCC2)C1=O` yielded a TGI [1] greater than 100 µM, a TGI [2] greater than 100 µM and a TGI [3] greater than 100 µM. It also gave a TGI [4] greater than 100 µM, a TGI [5] greater than 100 µM and a TGI [6] greater than 100 µM. It also gave a TGI [7] greater than 100 µM, a TGI [8] greater than 100 µM and a TGI [9] greater than 100 µM. It also gave a TGI [10] greater than 100 µM, a TGI [11] greater than 100 µM and a TGI [12] greater than 100 µM. For the same compound, the TGI [13] was greater than 100 µM, the TGI [14] was greater than 100 µM and the TGI [15] was greater than 100 µM. The TGI [16] was greater than 100 µM, the TGI [17] was greater than 100 µM and the TGI [18] was greater than 100 µM. For the same compound, the TGI [19] was greater than 100 µM, the TGI [20] was greater than 100 µM and the TGI [21] was greater than 100 µM. For the same compound, the TGI [22] was greater than 100 µM, the TGI [23] was greater than 100 µM and the TGI [24] was greater than 100 µM. For the same compound, the TGI [25] was greater than 100 µM, the TGI [26] was greater than 100 µM and the TGI [27] was greater than 100 µM. It also gave a TGI [28] greater than 100 µM, a TGI [29] greater than 100 µM and a TGI [30] greater than 100 µM. For the same compound, the TGI [31] was greater than 100 µM, the TGI [32] was greater than 100 µM and the TGI [33] was greater than 100 µM. The TGI [34] was greater than 100 µM, the TGI [35] was greater than 100 µM and the TGI [36] was greater than 100 µM. The TGI [37] was greater than 100 µM, the TGI [38] was greater than 100 µM and the TGI [39] was greater than 100 µM. It also gave a TGI [40] greater than 100 µM, a TGI [41] greater than 100 µM and a TGI [42] greater than 100 µM. It also gave a TGI [43] greater than 100 µM, a TGI [44] greater than 100 µM and a TGI [45] greater than 100 µM. For the same compound, the TGI [46] was greater than 100 µM.
In the case of `OC1CSSC1Cn1cnc2c(Nc3ccc(OCc4cccc(F)c4)c(Cl)c3)ncnc21` (centres undefined), the GI50 [1] is reported as 591 nM, the TGI [1] is reported as 4.64 µM and the GI50 [2] is reported as 121 nM. It also gave a TGI [2] of 0.499 µM, a GI50 [3] of 749 nM and a TGI [3] of 1.87 µM. It also gave a GI50 [47] of 2200 nM, a TGI [47] of 6.85 µM and a GI50 [48] of 4.09 µM. It also gave a TGI [48] of 15.4 µM, a GI50 [49] of 386 nM and a TGI [49] of 1430 nM. It also gave a GI50 [4] of 560 nM, a TGI [4] of 2.9 µM and a GI50 [5] of 5.67 µM. The TGI [5] was 11.9 µM, the GI50 [6] was 604 nM and the TGI [6] was 1.5 µM. It also gave a GI50 [50] of 5.12 µM, a TGI [50] of 10.7 µM and a GI50 [8] of 8.97 µM. It also gave a TGI [8] of 23 µM, a GI50 [51] of 1270 nM and a TGI [51] of 8.53 µM. For the same compound, the GI50 [9] was 687 nM, the TGI [9] was 3.84 µM and the GI50 [10] was 4.16 µM. The TGI [10] was 8.8 µM, the GI50 [11] was 2140 nM and the TGI [11] was 7.22 µM. For the same compound, the GI50 [12] was 952 nM, the TGI [12] was 3.49 µM and the GI50 [13] was 1700 nM. It also gave a TGI [13] of 5.67 µM, a GI50 [14] of 4.46 µM and a TGI [14] of 13.6 µM. For the same compound, the GI50 [15] was 1450 nM, the TGI [15] was 6.55 µM and the GI50 [16] was 603 nM. For the same compound, the TGI [16] was 2.35 µM, the GI50 [17] was 350 nM and the TGI [17] was 0.788 µM. For the same compound, the GI50 [18] was 689 nM, the TGI [18] was 1.73 µM and the GI50 [19] was 5.28 µM. The TGI [19] was 15 µM, the GI50 [52] was 1120 nM and the TGI [52] was 4.15 µM. It also gave a GI50 [20] of 733 nM, a TGI [20] of 2.88 µM and a GI50 [21] of 6.17 µM. For the same compound, the TGI [21] was 12.4 µM, the GI50 [22] was 742 nM and the TGI [22] was 1.88 µM. It also gave a GI50 [23] of 767 nM, a TGI [23] of 2.16 µM and a GI50 [24] of 3.71 µM. For the same compound, the TGI [24] was 12 µM, the GI50 [25] was 712 nM and the TGI [25] was 1.43 µM. For the same compound, the GI50 [53] was 4.98 µM, the TGI [53] was 12.1 µM and the GI50 [26] was 4.02 µM. The TGI [26] was 9.5 µM, the GI50 [27] was 1060 nM and the TGI [27] was 3.74 µM. It also gave a GI50 [28] of 91.2 nM, a TGI [28] of 0.288 µM and a GI50 [29] of 997 nM. The TGI [29] was 3.26 µM, the GI50 [30] was 441 nM and the TGI [30] was 1.38 µM. It also gave a GI50 [31] of 3.47 µM, a TGI [31] of 20.8 µM and a GI50 [32] of 986 nM. The TGI [32] was 4.53 µM, the GI50 [54] was 748 nM and the TGI [54] was 1930 nM. It also gave a GI50 [33] of 1190 nM, a TGI [33] of 4.95 µM and a GI50 [34] of 171 nM. It also gave a TGI [34] of 0.667 µM, a GI50 [55] of 3.79 µM and a TGI [55] of 10.4 µM. The GI50 [35] was 750 nM, the TGI [35] was 1.75 µM and the GI50 [56] was 744 nM. It also gave a TGI [56] of 3.91 µM, a GI50 [36] of 971 nM and a TGI [36] of 2.71 µM. It also gave a GI50 [37] of 509 nM, a TGI [37] of 1.29 µM and a GI50 [38] of 3.38 µM. It also gave a TGI [38] of 12.8 µM, a GI50 [39] of 3.83 µM and a TGI [39] of 10.2 µM. The GI50 [40] was 1170 nM, the TGI [40] was 4.54 µM and the GI50 [41] was 3.26 µM. For the same compound, the TGI [41] was 12.3 µM, the GI50 [42] was 2830 nM and the TGI [42] was 8.69 µM. For the same compound, the GI50 [43] was 1890 nM, the TGI [43] was 7.67 µM and the GI50 [44] was 1150 nM. For the same compound, the TGI [44] was 5.01 µM, the GI50 [57] was 1300 nM and the TGI [57] was 8.4 µM. It also gave a GI50 [58] of 2520 nM, a TGI [58] of 10.6 µM and a GI50 [59] of 407 nM. For the same compound, the TGI [59] was 1590 nM, the GI50 [45] was 940 nM and the TGI [45] was 2.79 µM. For the same compound, the GI50 [46] was 656 nM and the TGI [46] was 13.9 µM.
In the case of `Cc1ccc(Cl)c2[nH]c(-c3ccccc3)cc(=O)c12`, the TGI [1] is reported as greater than 100 µM, the TGI [2] is reported as greater than 100 µM and the TGI [3] is reported as greater than 100 µM. For the same compound, the TGI [48] was greater than 100 µM, the TGI [49] was greater than 100000 nM and the TGI [4] was 79.7 µM. The TGI [5] was greater than 100 µM, the TGI [6] was greater than 100 µM and the TGI [7] was greater than 100 µM. The TGI [50] was greater than 100 µM, the TGI [51] was greater than 100 µM and the TGI [9] was greater than 100 µM. For the same compound, the TGI [10] was greater than 100 µM, the TGI [12] was greater than 100 µM and the TGI [13] was 98.4 µM. For the same compound, the TGI [14] was greater than 100 µM, the TGI [16] was 45 µM and the TGI [17] was greater than 100 µM. It also gave a TGI [18] greater than 100 µM, a TGI [19] greater than 100 µM and a TGI [52] greater than 100 µM. It also gave a TGI [20] greater than 100 µM, a TGI [21] greater than 100 µM and a TGI [22] of 72 µM. It also gave a TGI [23] greater than 100 µM, a TGI [24] greater than 100 µM and a TGI [25] greater than 100 µM. The TGI [26] was greater than 100 µM, the TGI [27] was greater than 100 µM and the TGI [28] was greater than 100 µM. The TGI [29] was greater than 100 µM, the TGI [30] was greater than 100 µM and the TGI [31] was greater than 100 µM. The TGI [32] was greater than 100 µM, the TGI [54] was greater than 100000 nM and the TGI [33] was greater than 100 µM. It also gave a TGI [34] greater than 100 µM, a TGI [55] greater than 100 µM and a TGI [35] greater than 100 µM. For the same compound, the TGI [56] was greater than 100 µM, the TGI [36] was greater than 100 µM and the TGI [37] was 34.6 µM. It also gave a TGI [38] greater than 100 µM, a TGI [39] greater than 100 µM and a TGI [40] greater than 100 µM. It also gave a TGI [41] greater than 100 µM, a TGI [42] greater than 100 µM and a TGI [44] greater than 100 µM. For the same compound, the TGI [57] was greater than 100 µM, the TGI [58] was greater than 100 µM and the TGI [45] was greater than 100 µM. For the same compound, the TGI [46] was greater than 100 µM.
